According to paper PMC8848308 (Bioorganic & medicinal chemistry letters, 2020):

Test system: Huh7 cells stably expressing DENV-3 replicon (strain D3MY05-34640)
Assay: Luciferase reporter replicon assay, DENV-3
Assay type: cell-based
Conditions: on moving the 3-F group to the ortho position (compared with the 3-F analogue)

With `O=C1CC2(C(=O)Nc3ccc(Cl)cc32)c2cnn(Cc3ccc(Cl)c(F)c3)c2N1` (stereo not shown) [Compound 22, 5-Chloro-1’-(4-chloro-3-fluorobenzyl)-5’,7’-dihydrospiro[indoline-3,4’-pyrazolo[3,4-b]pyridine]-2,6’(1’H)-dione] the “loss of potency against DENV-3” value was 20 fold.
